# In ChEMBL document CHEMBL1201862, “PubChem BioAssay data set” (2004):
#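 Results reflect a 48-hour exposure of cells in 96-well plates to compound at five concentrations. GI50: concentration for 50% inhibition of growth.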 The source made the active and inactive calls. Cut-off read from the data, not from the text of the source: active = GI50 up to about 1.1 µM and inactive = higher.
# Tests used:
# Experiment in all cases: NCI anticancer screen, dose series, 48 h
# NCI-H460 = tested on: NCI-H460
# A498 = tested on: A498
# OVCAR-5 = tested on: OVCAR-5
# SF-268 = tested on: SF-268
# LOX IMVI = tested on: LOX IMVI
# SNB-75 = tested on: SNB-75
# DMS-273 = tested on: DMS-273
# OVCAR-4 = tested on: OVCAR-4
# NCI-H226 = tested on: NCI-H226
# NCI-H522 = tested on: NCI-H522
# XF498 = tested on: XF498
# RPMI-8226 = tested on: RPMI-8226
# UO-31 = tested on: UO-31
# HOP-18 = tested on: HOP-18
# SK-MEL-5 = tested on: SK-MEL-5
# SNB-19 = tested on: SNB-19
# HCC 2998 = tested on: HCC 2998
# HCT-116 = tested on: HCT-116
# KM-20L2 = tested on: KM-20L2
# HOP-92 = tested on: HOP-92
# IGROV-1 = tested on: IGROV-1
# SK-MEL-28 = tested on: SK-MEL-28
# EKVX = tested on: EKVX
# SW-620 = tested on: SW-620
# Malme-3M = tested on: Malme-3M
# OVCAR-8 = tested on: OVCAR-8
# SF-539 = tested on: SF-539
# M19-MEL = tested on: M19-MEL
# SF-295 = tested on: SF-295
# UACC-62 = tested on: UACC-62
# OVCAR-3 = tested on: OVCAR-3
# CAKI-1 = tested on: CAKI-1
# MOLT-4 = tested on: MOLT-4
# U-251 = tested on: U-251
# SK-MEL-2 = tested on: SK-MEL-2
# KM12 = tested on: KM12
# HL-60 = tested on: HL-60
# SK-OV-3 = tested on: SK-OV-3
# DMS-114 = tested on: DMS-114
# HT-29 = tested on: HT-29
# NCI/ADR-RES = tested on: NCI/ADR-RES
# HCT-15 = tested on: HCT-15
# K562 = tested on: K562
# SN12C = tested on: SN12C
# SNB-78 = tested on: SNB-78
# UACC-257 = tested on: UACC-257
# RXF 393 = tested on: RXF 393
# NCI-H23 = tested on: NCI-H23
# DLD-1 = tested on: DLD-1
# A549 = tested on: A549
# COLO 205 = tested on: COLO 205
# MCF7 = tested on: MCF7
# CCRF-CEM = tested on: CCRF-CEM
# HOP-62 = tested on: HOP-62
structure (smiles),measurement,setting,value
CN1CCN(P2(=S)Oc3ccc4ccccc4c3-c3c(ccc4ccccc34)O2)CC1,GI50,NCI-H460,19.5 µM (inactive)
same,GI50,A498,52.5 µM (inactive)
same,GI50,OVCAR-5,54.7 µM (inactive)
same,GI50,SF-268,38.4 µM (inactive)
same,GI50,LOX IMVI,18.9 µM (inactive)
same,GI50,SNB-75,37.5 µM (inactive)
same,GI50,DMS-273,22.4 µM (inactive)
same,GI50,OVCAR-4,36.6 µM (inactive)
same,GI50,NCI-H226,26.2 µM (inactive)
same,GI50,NCI-H522,24.2 µM (inactive)
same,GI50,XF498,28.8 µM (inactive)
same,GI50,RPMI-8226,7.8 µM (inactive)
same,GI50,UO-31,18.4 µM (inactive)
same,GI50,HOP-18,> 65.2 µM (inactive)
same,GI50,SK-MEL-5,22.2 µM (inactive)
same,GI50,SNB-19,39.6 µM (inactive)
same,GI50,HCC 2998,21 µM (inactive)
same,GI50,HCT-116,32.7 µM (inactive)
same,GI50,KM-20L2,22.8 µM (inactive)
same,GI50,HOP-92,13.6 µM (inactive)
same,GI50,IGROV-1,53.1 µM (inactive)
same,GI50,SK-MEL-28,41.1 µM (inactive)
same,GI50,EKVX,29.6 µM (inactive)
same,GI50,SW-620,39 µM (inactive)
same,GI50,Malme-3M,21.4 µM (inactive)
same,GI50,OVCAR-8,37.2 µM (inactive)
same,GI50,SF-539,21.5 µM (inactive)
same,GI50,M19-MEL,30.3 µM (inactive)
same,GI50,SF-295,34.9 µM (inactive)
same,GI50,UACC-62,34.5 µM (inactive)
same,GI50,OVCAR-3,27.9 µM (inactive)
same,GI50,CAKI-1,15.4 µM (inactive)
same,GI50,MOLT-4,15.1 µM (inactive)
same,GI50,U-251,32.7 µM (inactive)
same,GI50,SK-MEL-2,18.8 µM (inactive)
same,GI50,KM12,21.6 µM (inactive)
same,GI50,HL-60,13.1 µM (inactive)
same,GI50,SK-OV-3,> 71.3 µM (inactive)
same,GI50,DMS-114,29.6 µM (inactive)
same,GI50,HT-29,19.6 µM (inactive)
same,GI50,NCI/ADR-RES,28.7 µM (inactive)
same,GI50,HCT-15,28.7 µM
same,GI50,K562,20.7 µM (inactive)
same,GI50,SN12C,33.5 µM (inactive)
same,GI50,SNB-78,50.4 µM (inactive)
same,GI50,UACC-257,29.7 µM (inactive)
same,GI50,RXF 393,25.6 µM (inactive)
same,GI50,NCI-H23,37.5 µM (inactive)
same,GI50,DLD-1,34.6 µM (inactive)
same,GI50,A549,40.3 µM (inactive)
same,GI50,COLO 205,16.5 µM (inactive)
same,GI50,MCF7,13.6 µM (inactive)
same,GI50,CCRF-CEM,29.8 µM (inactive)
same,GI50,HOP-62,26.3 µM (inactive)
COC1=C2CC(C)CC(OC)C(O)C(C)/C=C(\C)C(OC(N)=O)C(OC)/C=C\C=C(/C)C(=O)NC(=C(/C=N/C(C)(C)C)C1=O)C2=O (configuration not stated),GI50,NCI-H460,2.44 µM (inactive)
same,GI50,A498,3.57 µM (inactive)
same,GI50,OVCAR-5,37.3 µM (inactive)
same,GI50,SF-268,6.3 µM (inactive)
same,GI50,LOX IMVI,4.41 µM (inactive)
same,GI50,SNB-75,0.767 µM (active)
same,GI50,DMS-273,0.986 µM (active)
same,GI50,OVCAR-4,1.71 µM (inactive)
same,GI50,NCI-H226,1.75 µM (inactive)
same,GI50,NCI-H522,0.279 µM (active)
same,GI50,XF498,0.767 µM (active)
same,GI50,RPMI-8226,0.946 µM (active)
same,GI50,UO-31,8.81 µM (inactive)
same,GI50,HOP-18,6.85 µM (inactive)
same,GI50,SK-MEL-5,2.79 µM (inactive)
same,GI50,SNB-19,4.85 µM (inactive)
same,GI50,HCC 2998,1.68 µM (inactive)
same,GI50,HCT-116,3.69 µM (inactive)
same,GI50,KM-20L2,2.28 µM (inactive)
same,GI50,HOP-92,0.303 µM (active)
same,GI50,IGROV-1,13.1 µM (inactive)
same,GI50,SK-MEL-28,4.97 µM (inactive)
same,GI50,EKVX,3.64 µM (inactive)
same,GI50,SW-620,3.73 µM (inactive)
same,GI50,Malme-3M,1.89 µM (inactive)
same,GI50,OVCAR-8,5 µM (inactive)
same,GI50,SF-539,1.66 µM (inactive)
same,GI50,M19-MEL,4.45 µM (inactive)
same,GI50,SF-295,5.02 µM (inactive)
same,GI50,UACC-62,5.38 µM (inactive)
same,GI50,OVCAR-3,0.585 µM (active)
same,GI50,CAKI-1,3.08 µM (inactive)
same,GI50,MOLT-4,3.44 µM (inactive)
same,GI50,U-251,1.43 µM (inactive)
same,GI50,SK-MEL-2,4.85 µM (inactive)
same,GI50,KM12,4.62 µM (inactive)
same,GI50,HL-60,0.479 µM (active)
same,GI50,SK-OV-3,24.7 µM (inactive)
same,GI50,DMS-114,0.466 µM (active)
same,GI50,HT-29,3.19 µM (inactive)
same,GI50,NCI/ADR-RES,5.7 µM (inactive)
same,GI50,HCT-15,6.28 µM
same,GI50,K562,0.82 µM (active)
same,GI50,SN12C,2.04 µM (inactive)
same,GI50,SNB-78,13.9 µM (inactive)
same,GI50,UACC-257,2.55 µM (inactive)
same,GI50,RXF 393,0.351 µM (active)
same,GI50,NCI-H23,0.849 µM (active)
same,GI50,DLD-1,6.05 µM (inactive)
same,GI50,A549,2.47 µM (inactive)
same,GI50,COLO 205,1.31 µM (inactive)
same,GI50,MCF7,2.89 µM (inactive)
same,GI50,CCRF-CEM,0.857 µM (active)
same,GI50,HOP-62,5.86 µM (inactive)
CCOC(=O)/C=C/c1c(C)[nH]c(=O)[nH]c1=O,GI50,NCI-H460,> 250 µM (inactive)
same,GI50,A498,> 250 µM (inactive)
same,GI50,OVCAR-5,> 94.4 µM (inactive)
same,GI50,SF-268,> 250 µM (inactive)
same,GI50,LOX IMVI,> 250 µM (inactive)
same,GI50,SNB-75,> 250 µM (inactive)
same,GI50,DMS-273,> 176 µM (inactive)
same,GI50,OVCAR-4,> 158 µM (inactive)
same,GI50,NCI-H226,> 250 µM (inactive)
same,GI50,NCI-H522,102 µM (inactive)
same,GI50,XF498,> 250 µM (inactive)
same,GI50,RPMI-8226,> 250 µM (inactive)
same,GI50,UO-31,> 250 µM (inactive)
same,GI50,HOP-18,> 250 µM (inactive)
same,GI50,SK-MEL-5,> 250 µM (inactive)
same,GI50,SNB-19,> 250 µM (inactive)
same,GI50,HCC 2998,> 250 µM (inactive)
same,GI50,HCT-116,> 250 µM (inactive)
same,GI50,KM-20L2,> 250 µM (inactive)
same,GI50,HOP-92,19.1 µM (inactive)
same,GI50,IGROV-1,> 250 µM (inactive)
same,GI50,SK-MEL-28,> 250 µM (inactive)
same,GI50,EKVX,> 250 µM (inactive)
same,GI50,SW-620,> 250 µM (inactive)
same,GI50,Malme-3M,> 250 µM (inactive)
same,GI50,OVCAR-8,212 µM (inactive)
same,GI50,SF-539,> 250 µM (inactive)
same,GI50,M19-MEL,> 250 µM (inactive)
same,GI50,SF-295,> 250 µM (inactive)
same,GI50,UACC-62,> 250 µM (inactive)
same,GI50,OVCAR-3,> 242 µM (inactive)
same,GI50,CAKI-1,191 µM (inactive)
same,GI50,MOLT-4,> 250 µM (inactive)
same,GI50,U-251,> 250 µM (inactive)
same,GI50,SK-MEL-2,> 250 µM (inactive)
same,GI50,KM12,> 250 µM (inactive)
same,GI50,HL-60,> 250 µM (inactive)
same,GI50,SK-OV-3,> 141 µM (inactive)
same,GI50,DMS-114,120 µM (inactive)
same,GI50,HT-29,> 250 µM (inactive)
same,GI50,NCI/ADR-RES,> 250 µM (inactive)
same,GI50,HCT-15,> 250 µM
same,GI50,K562,> 250 µM (inactive)
same,GI50,SN12C,> 250 µM (inactive)
same,GI50,SNB-78,> 250 µM (inactive)
same,GI50,UACC-257,> 250 µM (inactive)
same,GI50,RXF 393,> 237 µM (inactive)
same,GI50,NCI-H23,> 250 µM (inactive)
same,GI50,DLD-1,> 250 µM (inactive)
same,GI50,A549,> 250 µM (inactive)
same,GI50,COLO 205,> 250 µM (inactive)
same,GI50,MCF7,244 µM (inactive)
same,GI50,CCRF-CEM,> 250 µM (inactive)
same,GI50,HOP-62,> 250 µM (inactive)
